Source: PubChem BioAssay AID248 (DTP/NCI, 2004)
Several values for one entry are separate records, joined by “and”; a condition that tells them apart may be missing. Identical values can stand only once. Inconclusive results and toxic doses are left out. Rule as the data show it: active = T/C of 150% or more; inactive = T/C below 125%.

System: L1210 leukemia ip in BDF1 mice, survival T/C
Assay: NCI In Vivo Anticancer Drug Screen. Data for tumor model L1210 Leukemia (intraperitoneal) in B6D2F1 (BDF1) mice
Conditions: endpoint: mean survival time, higher = longer survival
In short: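 Mice bearing the transplanted tumor received compound or vehicle. Survival of the treated group was divided by that of the vehicle-treated control group to give the ratio.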

[1] = dose: 100.0 mg/kg/injection, schedule: Q01DX001 (ip), vehicle: carboxymethylcellulose (CMC)
[2] = dose: 200.0 mg/kg/injection, schedule: Q01DX001 (ip), vehicle: carboxymethylcellulose (CMC)
[3] = dose: 400.0 mg/kg/injection, schedule: Q01DX001 (ip), vehicle: carboxymethylcellulose (CMC)
[4] = dose: 50.0 mg/kg/injection, schedule: Q01DX009 (ip), vehicle: Klucel (hydroxypropylcellulose) (HPC)
[5] = dose: 100.0 mg/kg/injection, schedule: Q01DX009 (ip), vehicle: Klucel (hydroxypropylcellulose) (HPC)
[6] = dose: 200.0 mg/kg/injection, schedule: Q01DX009 (ip), vehicle: Klucel (hydroxypropylcellulose) (HPC)
[7] = dose: 400.0 mg/kg/injection, schedule: Q01DX009 (ip), vehicle: Klucel (hydroxypropylcellulose) (HPC)
[8] = dose: 100.0 mg/kg/injection, schedule: Q01DX009 (ip), vehicle: saline with Tween-80
[9] = dose: 100.0 mg/kg/injection, schedule: Q04DX003 (ip), vehicle: saline with Tween-80
[10] = dose: 200.0 mg/kg/injection, schedule: Q01DX009 (ip), vehicle: saline with Tween-80
[11] = dose: 200.0 mg/kg/injection, schedule: Q04DX003 (ip), vehicle: saline with Tween-80
[12] = dose: 400.0 mg/kg/injection, schedule: Q01DX009 (ip), vehicle: saline with Tween-80
[13] = dose: 400.0 mg/kg/injection, schedule: Q04DX003 (ip), vehicle: saline with Tween-80
[14] = dose: 100.0 mg/kg/injection, schedule: Q04DX003 (ip), vehicle: Klucel (hydroxypropylcellulose) (HPC)
[15] = dose: 200.0 mg/kg/injection, schedule: Q04DX003 (ip), vehicle: Klucel (hydroxypropylcellulose) (HPC)
[16] = dose: 400.0 mg/kg/injection, schedule: Q04DX003 (ip), vehicle: Klucel (hydroxypropylcellulose) (HPC)
[17] = dose: 25.0 mg/kg/injection, schedule: Q04DX002 (ip), vehicle: Klucel (hydroxypropylcellulose) (HPC)
[18] = dose: 50.0 mg/kg/injection, schedule: Q04DX002 (ip), vehicle: Klucel (hydroxypropylcellulose) (HPC)
[19] = dose: 100.0 mg/kg/injection, schedule: Q04DX002 (ip), vehicle: Klucel (hydroxypropylcellulose) (HPC)
[20] = dose: 100.0 mg/kg/injection, schedule: Q01DX001 (ip), vehicle: saline
[21] = dose: 400.0 mg/kg/injection, schedule: Q01DX001 (ip), vehicle: saline

Measured: T/C

Nc1nc(Cl)nc2c1ncn2C1CC(O)C(CO)O1 (stereo not drawn)
inactive: dose: 44.4 mg/kg/injection, schedule: Q01DX001 (ip), vehicle: carboxymethylcellulose (CMC) 118 % of control | dose: 50.0 mg/kg/injection, schedule: Q01DX001 (ip), vehicle: carboxymethylcellulose (CMC) 109 % of control | dose: 66.6 mg/kg/injection, schedule: Q01DX001 (ip), vehicle: carboxymethylcellulose (CMC) 112 % of control | [1] 109 % of control and 118 % of control | [2] 120 % of control and 124 % of control | [3] 102 % of control

COc1ccccc1OCC(O)COC(N)=O (stereo not drawn)
inactive: dose: 25.0 mg/kg/injection, schedule: Q01DX009 (ip), vehicle: Klucel (hydroxypropylcellulose) (HPC) 100 % of control | [4] 103 % of control | [5] 106 % of control | [6] 103 % of control | [7] 106 % of control

CCOC(=O)N1C=Cc2ccccc2C1C#N (stereo not drawn)
inactive: [1] 124 % of control | [2] 98 % of control | [3] 93 % of control

O=C(O)C(c1cccs1)c1cccs1
inactive: [8] 102 % of control | [9] 102 % of control | [10] 88 % of control | [11] 92 % of control | [12] 105 % of control | [13] 103 % of control

CCCCN(CCCC)CC(O)c1cc(-c2ccc(C(F)(F)F)cc2)nc2c(Cl)cc(Cl)cc12 (stereo not drawn)
inactive: dose: 100.0 mg/kg/injection, schedule: Q04DX002 (ip), vehicle: saline with Tween-80 100 % of control | dose: 200.0 mg/kg/injection, schedule: Q04DX002 (ip), vehicle: saline with Tween-80 92 % of control | dose: 400.0 mg/kg/injection, schedule: Q04DX002 (ip), vehicle: saline with Tween-80 95 % of control

CN=C(Nc1ccc(Cl)c(Cl)c1)C(C)C
inactive: dose: 6.25 mg/kg/injection, schedule: Q04DX002 (ip), vehicle: DMSO 98 % of control | dose: 12.5 mg/kg/injection, schedule: Q04DX002 (ip), vehicle: DMSO 95 % of control | dose: 25.0 mg/kg/injection, schedule: Q04DX002 (ip), vehicle: DMSO 94 % of control and 106 % of control | dose: 44.0 mg/kg/injection, schedule: Q01DX Z (ip), vehicle: methylcellulose (MC) 91 % of control | dose: 50.0 mg/kg/injection, schedule: Q04DX002 (ip), vehicle: DMSO 97 % of control | dose: 66.0 mg/kg/injection, schedule: Q01DX Z (ip), vehicle: methylcellulose (MC) 98 % of control | dose: 100.0 mg/kg/injection, schedule: Q01DX Z (ip), vehicle: methylcellulose (MC) 101 % of control

CCOc1ccc2[nH]c(=S)sc2c1
inactive: [4] 93 % of control | [5] 102 % of control | [14] 105 % of control | [6] 86 % of control | [15] 89 % of control | [16] 100 % of control

CC(CO)(C(=O)O)c1ccccc1 (stereo not drawn)
inactive: dose: 55.0 mg/kg/injection, schedule: Q01DX Z (ip), vehicle: saline 103 % of control | dose: 83.0 mg/kg/injection, schedule: Q01DX Z (ip), vehicle: saline 96 % of control | dose: 125.0 mg/kg/injection, schedule: Q01DX Z (ip), vehicle: saline 94 % of control

CC(C)(C)C1([Si](C)(C)C)SCCCS1
inactive: dose: 100.0 mg/kg/injection, schedule: Q04DX002 (ip), vehicle: other 114 % of control | dose: 200.0 mg/kg/injection, schedule: Q04DX002 (ip), vehicle: other 108 % of control | dose: 400.0 mg/kg/injection, schedule: Q04DX002 (ip), vehicle: other 101 % of control

O=C(OCc1ccccc1CN1CCCCC1)c1ccc(Cl)cc1
inactive: [17] 102 % of control | [18] 105 % of control | [19] 107 % of control

CS(=O)(=O)OCCN(CCOS(C)(=O)=O)c1ccc(/C=N/Nc2ccc([N+](=O)[O-])cc2[N+](=O)[O-])cc1
inactive: [20] 92 % of control | [8] 96 % of control | dose: 100.0 mg/kg/injection, schedule: Q04DX003 (ip), vehicle: saline 91 % of control | [10] 91 % of control | dose: 200.0 mg/kg/injection, schedule: Q04DX003 (ip), vehicle: saline 90 % of control | [21] 89 % of control | [12] 93 % of control | dose: 400.0 mg/kg/injection, schedule: Q04DX003 (ip), vehicle: saline 87 % of control

O=C(Nc1cccc2ccccc12)OC/C=C/c1ccccc1
inactive: [19] 119 % of control | dose: 200.0 mg/kg/injection, schedule: Q04DX002 (ip), vehicle: Klucel (hydroxypropylcellulose) (HPC) 93 % of control | dose: 400.0 mg/kg/injection, schedule: Q04DX002 (ip), vehicle: Klucel (hydroxypropylcellulose) (HPC) 104 % of control

COc1ccc(C[As+](Cc2ccccc2)(Cc2ccc(OC)cc2)Cc2ccc(OC)cc2)cc1
inactive: dose: 5.0 mg/kg/injection, schedule: Q01DX001 (ip), vehicle: saline 103 % of control | dose: 10.0 mg/kg/injection, schedule: Q01DX001 (ip), vehicle: saline 98 % of control | dose: 20.0 mg/kg/injection, schedule: Q01DX001 (ip), vehicle: saline 96 % of control

Ic1ccccc1C[N+]12CN3CN(CN(C3)C1)C2
inactive: dose: 15.0 mg/kg/injection, schedule: Q01DX015 (ip), vehicle: carboxymethylcellulose (CMC) 101 % of control | dose: 30.0 mg/kg/injection, schedule: Q01DX015 (ip), vehicle: carboxymethylcellulose (CMC) 92 % of control | dose: 60.0 mg/kg/injection, schedule: Q01DX015 (ip), vehicle: carboxymethylcellulose (CMC) 92 % of control | dose: 100.0 mg/kg/injection, schedule: Q01DX001 (ip), vehicle: acetone 101 % of control | dose: 100.0 mg/kg/injection, schedule: Q01DX009 (ip), vehicle: acetone 96 % of control | dose: 100.0 mg/kg/injection, schedule: Q04DX003 (ip), vehicle: acetone 100 % of control | dose: 120.0 mg/kg/injection, schedule: Q01DX015 (ip), vehicle: carboxymethylcellulose (CMC) 103 % of control | dose: 200.0 mg/kg/injection, schedule: Q01DX001 (ip), vehicle: acetone 101 % of control | dose: 200.0 mg/kg/injection, schedule: Q01DX009 (ip), vehicle: acetone 94 % of control | dose: 200.0 mg/kg/injection, schedule: Q04DX003 (ip), vehicle: acetone 100 % of control | dose: 400.0 mg/kg/injection, schedule: Q01DX001 (ip), vehicle: acetone 94 % of control | dose: 400.0 mg/kg/injection, schedule: Q04DX003 (ip), vehicle: acetone 93 % of control

O/N=C/c1cccn1-c1cccc2c(-n3cccc3/C=N/O)cccc12
inactive: [17] 101 % of control | [18] 93 % of control | [19] 97 % of control

O=C(Oc1ccc([N+](=O)[O-])cc1)c1ccccc1S(=O)OCCc1ccccc1 (stereo not drawn)
inactive: dose: 100.0 mg/kg/injection, schedule: Q01DX001 (ip), vehicle: other 92 % of control | dose: 200.0 mg/kg/injection, schedule: Q01DX001 (ip), vehicle: other 95 % of control

O=C1C(C(Cl)c2ccccc2)SC(c2ccccc2)N1c1ccccc1 (stereo not drawn)
inactive: [5] 95 % of control | [14] 102 % of control | [6] 95 % of control | [15] 89 % of control | [7] 95 % of control | [16] 96 % of control

CCOC(=O)NC(NC(=O)OCC)C(Cl)Cl
inactive: [20] 101 % of control | dose: 200.0 mg/kg/injection, schedule: Q01DX001 (ip), vehicle: saline 103 % of control | [21] 103 % of control

COc1cc(C(=O)CC(O)(C(F)(F)F)C(F)(F)F)cc(OC)c1OC
inactive: [4] 95 % of control | dose: 100.0 mg/kg/injection, schedule: Q01DX001 (ip), vehicle: Klucel (hydroxypropylcellulose) (HPC) 86 % of control | [5] 97 % of control | dose: 200.0 mg/kg/injection, schedule: Q01DX001 (ip), vehicle: Klucel (hydroxypropylcellulose) (HPC) 100 % of control | [6] 98 % of control

CC1=NOC(=O)C1C(C)(C)C1C(=O)ON=C1C (stereo not drawn)
inactive: [9] 101 % of control | [11] 95 % of control | [13] 101 % of control
